Source: patent US9642831B2, “Substituted chromanes and method of use” (AbbVie S.á.r.l., priority 2014, dated 2017)

Target: F508delCFTR (Homo sapiens, UniProt P13569, DEL508-508)
Assay: Cell Surface Expression-Horse Radish Peroxidase (CSE-HRP) assay
Format: cell-based
Set-up: expressed in transfected cells; host or cells: CFBE41o- human lung derived epithelial cell line, doxycycline-inducible
Conditions: CFBE4lo-F508delCFTR-HRP cells; for EC50: 18-24 hours at 33° C., 8-point curve, highest concentration 20 μM, luminescence readout
In short: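 Following 18-24 h compound exposure at 33° C. Expression was doxycycline-induced beforehand. % activity versus DMSO and a 3 μM corrector control gave maximum activity and EC50 from a variable-Hill sigmoidal fit.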

[1] = maximum % activity at any tested concentration, normalized to on-plate positive control (3 μM Example 1)

Chain of F508delCFTR (P13569 with tags, fused parts or gaps DEL508-508): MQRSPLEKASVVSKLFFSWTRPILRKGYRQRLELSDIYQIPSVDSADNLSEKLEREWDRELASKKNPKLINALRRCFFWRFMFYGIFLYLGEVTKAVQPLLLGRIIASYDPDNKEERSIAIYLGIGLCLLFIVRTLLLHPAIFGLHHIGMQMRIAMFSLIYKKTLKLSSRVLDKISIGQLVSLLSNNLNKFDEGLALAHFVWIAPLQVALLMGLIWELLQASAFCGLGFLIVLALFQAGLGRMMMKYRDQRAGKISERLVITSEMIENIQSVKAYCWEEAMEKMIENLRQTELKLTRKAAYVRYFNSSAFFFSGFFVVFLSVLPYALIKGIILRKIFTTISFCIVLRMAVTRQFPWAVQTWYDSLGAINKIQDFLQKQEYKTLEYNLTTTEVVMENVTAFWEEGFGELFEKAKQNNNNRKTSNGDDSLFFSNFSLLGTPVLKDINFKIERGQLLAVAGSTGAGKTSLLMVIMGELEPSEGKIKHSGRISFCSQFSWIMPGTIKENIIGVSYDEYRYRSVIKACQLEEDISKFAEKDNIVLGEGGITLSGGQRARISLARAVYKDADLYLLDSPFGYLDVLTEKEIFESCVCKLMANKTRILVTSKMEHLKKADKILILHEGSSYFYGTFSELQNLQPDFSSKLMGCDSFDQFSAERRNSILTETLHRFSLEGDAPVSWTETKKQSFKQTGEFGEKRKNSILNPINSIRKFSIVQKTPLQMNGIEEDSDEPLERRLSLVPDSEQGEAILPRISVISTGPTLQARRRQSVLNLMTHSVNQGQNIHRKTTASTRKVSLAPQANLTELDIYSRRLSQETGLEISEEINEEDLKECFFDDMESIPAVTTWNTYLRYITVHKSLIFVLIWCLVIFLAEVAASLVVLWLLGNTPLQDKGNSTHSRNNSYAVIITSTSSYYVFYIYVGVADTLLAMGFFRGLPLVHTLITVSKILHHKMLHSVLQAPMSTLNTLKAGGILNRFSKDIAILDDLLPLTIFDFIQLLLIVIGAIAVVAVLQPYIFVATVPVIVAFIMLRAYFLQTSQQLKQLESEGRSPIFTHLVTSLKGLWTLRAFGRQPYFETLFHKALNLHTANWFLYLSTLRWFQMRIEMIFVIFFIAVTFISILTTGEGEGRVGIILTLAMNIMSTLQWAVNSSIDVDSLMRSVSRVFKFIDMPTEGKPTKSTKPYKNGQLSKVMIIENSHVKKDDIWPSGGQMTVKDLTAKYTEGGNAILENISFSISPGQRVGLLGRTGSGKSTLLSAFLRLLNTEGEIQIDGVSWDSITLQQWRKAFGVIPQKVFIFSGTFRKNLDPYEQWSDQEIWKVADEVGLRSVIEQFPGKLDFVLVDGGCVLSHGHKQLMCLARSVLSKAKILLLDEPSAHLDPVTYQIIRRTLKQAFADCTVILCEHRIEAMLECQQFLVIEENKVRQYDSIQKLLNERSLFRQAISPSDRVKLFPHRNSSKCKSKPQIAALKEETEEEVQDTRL

COc1ccc2c(c1)OC1(CCN(C(=O)C(C)(C)CO)CC1)CC2NC(=O)C1(c2ccc3c(c2)OC(F)(F)O3)CC1 (centres unmarked) [Example 107, 1-(2,2-difluoro-1,3-benzodioxol-5-yl)-N-[1′-(3-hydroxy-2,2-dimethylpropanoyl)-7-methoxy-3,4-dihydrospiro[chromene-2,4′-piperidin]-4-yl]cyclopropanecarboxamide]
EC50: 1130 nM | Emax [1]: 99%

COC(=O)c1ccc([C@H]2C[C@@H](NC(=O)C3(c4ccc5c(c4)OC(F)(F)O5)CC3)c3ccc(OC)cc3O2)cc1 [Example 110, methyl 4-[(2R,4R)-4-({[1-(2,2-difluoro-1,3-benzodioxol-5-yl)cyclopropyl]carbonyl}amino)-7-methoxy-3,4-dihydro-2H-chromen-2-yl]benzoate]
EC50: 280 nM | Emax [1]: 115%

COc1ccc2c(c1)OC(C1CNC1)CC2NC(=O)C1(c2ccc3c(c2)OC(F)(F)O3)CC1 (centres unmarked) [Example 116, N-[2-(azetidin-3-yl)-7-methoxy-3,4-dihydro-2H-chromen-4-yl]-1-(2,2-difluoro-1,3-benzodioxol-5-yl)cyclopropanecarboxamide]
EC50: 7640 nM | Emax [1]: 59%

COC(=O)c1ccc([C@H]2C[C@@H](NC(=O)C3(c4ccc5c(c4)OC(F)(F)O5)CC3)c3ccccc3O2)cc1 [Example 120, methyl 4-[(2R,4R)-4-({[1-(2,2-difluoro-1,3-benzodioxol-5-yl)cyclopropyl]carbonyl}amino)-3,4-dihydro-2H-chromen-2-yl]benzoate]
EC50: 500 nM | Emax [1]: 110%

COC(=O)c1ccc([C@H]2C[C@@H](NC(=O)C3(c4ccc5c(c4)OC(F)(F)O5)CC3)c3ccc(OC(F)F)cc3O2)cc1 [Example 123, methyl 4-[(2R,4R)-4-({[1-(2,2-difluoro-1,3-benzodioxol-5-yl)cyclopropyl]carbonyl}amino)-7-(difluoromethoxy)-3,4-dihydro-2H-chromen-2-yl]benzoate]
EC50: 50 nM | Emax [1]: 115%

CC1(C)CC(NC(=O)C2(c3ccc4c(c3)OC(F)(F)O4)CC2)c2ccc(O)cc2O1 (centres unmarked) [Example 124, 1-(2,2-difluoro-1,3-benzodioxol-5-yl)-N-(7-hydroxy-2,2-dimethyl-3,4-dihydro-2H-chromen-4-yl)cyclopropanecarboxamide]
EC50: 6760 nM | Emax [1]: 26%

CC1(C)CC(NC(=O)C2(c3ccc4c(c3)OC(F)(F)O4)CC2)c2ccc(OC(F)F)cc2O1 (centres unmarked) [Example 125, 1-(2,2-difluoro-1,3-benzodioxol-5-yl)-N-[7-(difluoromethoxy)-2,2-dimethyl-3,4-dihydro-2H-chromen-4-yl]cyclopropanecarboxamide]
EC50: 2140 nM | Emax [1]: 115%

COc1ccc2c(c1)OC(C1CCCO1)CC2NC(=O)C1(c2ccc3c(c2)OC(F)(F)O3)CC1 (centres unmarked) [Example 126, 1-(2,2-difluoro-1,3-benzodioxol-5-yl)-N-[7-methoxy-2-(tetrahydrofuran-2-yl)-3,4-dihydro-2H-chromen-4-yl]cyclopropanecarboxamide]
EC50: 1380 nM | Emax [1]: 79%

COC(=O)c1ccc([C@H]2C[C@@H](NC(=O)C3(c4ccc5c(c4)OC(F)(F)O5)CC3)c3ccc(O)cc3O2)cc1 [Example 127, methyl 4-[(2R,4R)-4-({[1-(2,2-difluoro-1,3-benzodioxol-5-yl)cyclopropyl]carbonyl}amino)-7-hydroxy-3,4-dihydro-2H-chromen-2-yl]benzoate]
EC50: 2810 nM | Emax [1]: 65%

O=C(O)c1ccc([C@H]2C[C@@H](NC(=O)C3(c4ccc5c(c4)OC(F)(F)O5)CC3)c3ccc(O)cc3O2)cc1 [Example 128, 4-[(2R,4R)-4-({[1-(2,2-difluoro-1,3-benzodioxol-5-yl)cyclopropyl]carbonyl}amino)-7-hydroxy-3,4-dihydro-2H-chromen-2-yl]benzoic acid]
EC50: 4570 nM | Emax [1]: 66%

COc1ccc2c(c1)OC1(CC(C(=O)O)C1)CC2NC(=O)C1(c2ccc3c(c2)OC(F)(F)O3)CC1 (centres unmarked) [Example 129, 4-({[1-(2,2-difluoro-1,3-benzodioxol-5-yl)cyclopropyl]carbonyl}amino)-7-methoxy-3,4-dihydrospiro[chromene-2,1′-cyclobutane]-3′-carboxylic acid]
EC50: 6200 nM | Emax [1]: 44%

COC(=O)c1ccc([C@H]2C[C@@H](NC(=O)C3(c4ccc5c(c4)OC(F)(F)O5)CC3)c3ccc(OC)cc3O2)cc1F [Example 137, methyl 4-[(2R,4R)-4-({[1-(2,2-difluoro-1,3-benzodioxol-5-yl)cyclopropyl]carbonyl}amino)-7-methoxy-3,4-dihydro-2H-chromen-2-yl]-2-fluorobenzoate]
EC50: 140 nM | Emax [1]: 131%

COC(=O)c1ccc([C@H]2C[C@@H](NC(=O)C3(c4ccc5c(c4)OC(F)(F)O5)CC3)c3ccc(OC)cc3O2)c(F)c1 [Example 138, methyl 4-[(2R,4R)-4-({[1-(2,2-difluoro-1,3-benzodioxol-5-yl)cyclopropyl]carbonyl}amino)-7-methoxy-3,4-dihydro-2H-chromen-2-yl]-3-fluorobenzoate]
EC50: 50 nM | Emax [1]: 119%

CCOC(=O)C1CC(C2CC(NC(=O)C3(c4ccc5c(c4)OC(F)(F)O5)CC3)c3ccccc3O2)C1 (centres unmarked) [Example 151, ethyl 3-[4-({[1-(2,2-difluoro-1,3-benzodioxol-5-yl)cyclopropyl]carbonyl}amino)-3,4-dihydro-2H-chromen-2-yl]cyclobutanecarboxylate]
EC50: 6120 nM | Emax [1]: 64%

O=C(O)C1CC(C2CC(NC(=O)C3(c4ccc5c(c4)OC(F)(F)O5)CC3)c3ccccc3O2)C1 (centres unmarked) [Example 152, 3-[4-({[1-(2,2-difluoro-1,3-benzodioxol-5-yl)cyclopropyl]carbonyl}amino)-3,4-dihydro-2H-chromen-2-yl]cyclobutanecarboxylic acid]
EC50: 6350 nM | Emax [1]: 59%

O=C(O)c1ccc([C@H]2C[C@@H](NC(=O)C3(c4cc5c(cc4Br)OC(F)(F)O5)CC3)c3ccc(OC(F)F)cc3O2)cc1 [Example 202, 4-[(2R,4R)-4-({[1-(6-bromo-2,2-difluoro-1,3-benzodioxol-5-yl)cyclopropyl]carbonyl}amino)-7-(difluoromethoxy)-3,4-dihydro-2H-chromen-2-yl]benzoic acid]
EC50: 10 nM | Emax [1]: 142%

COC(=O)c1ccc([C@H]2C[C@@H](NC(=O)C3(c4cc5c(cc4Br)OC(F)(F)O5)CC3)c3ccc(OC)cc3O2)cc1 [Example 202F, methyl 4-((2R,4R)-4-(1-(6-bromo-2,2-difluorobenzo[d][1,3]dioxol-5-yl)cyclopropanecarboxamido)-7-methoxychroman-2-yl)benzoate]
EC50: 40 nM | Emax [1]: 131%

CS(=O)(=O)NC(=O)c1ccc([C@H]2C[C@@H](NC(=O)C3(c4ccc5c(c4)OC(F)(F)O5)CC3)c3ccc(OC(F)F)cc3O2)cc1 [Example 203, 4-[(2R,4R)-4-({[1-(2,2-difluoro-1,3-benzodioxol-5-yl)cyclopropyl]carbonyl}amino)-7-(difluoromethoxy)-3,4-dihydro-2H-chromen-2-yl]-N-(methylsulfonyl)benzamide]
EC50: 690 nM | Emax [1]: 157%

N-[2-(3,4-dichlorophenyl)-3,4-dihydro-2H-chromen-4-yl]-1-(2,2-difluoro-1,3-benzodioxol-5-yl)cyclopropanecarboxamide [Example 66]
EC50: 6100 nM | Maximum % activity (%) [1]: 89%
